Measurements reported in patent publication US9192585B2, “Inhibitors of cognitive decline” (Cognition Therapeutics, Inc., priority 2009, dated 2015).

What was measured:
[1] = test system: Abeta oligomer effects on membrane trafficking in primary rat neurons; experiment: Primary neuron-based functional screening assay, membrane trafficking (Example EE); format: cell-based; details: for block of Abeta oligomer effects (decrease of intracellular formazan-filled vesicles): added to cultures prior to oligomer addition, FIG. 2A
Excerpt: Primary rat neurons grown for at least 3 weeks in vitro were chosen as the basis for this screening assay. […] More complex systems such as acute or organotypic brain slices are very useful but not amenable to high throughput screening. […] For this reason, primary neuronal cultures were chosen because of their ability to be used in high throughput screens and fidelity to what occurs in vivo.
The MTT assay can be used as a measure of toxicity in cultures. Yellow tetrazolium salts were endocytosed by cells and reduced to insoluble purple formazan in the endosomal pathway. The level of purple formazan was a reflection of the number of actively metabolizing cells in culture, and reduction in the amount of formazan was taken as a measure of cell death or metabolic toxicity in culture.
The exocytosis assay was adapted for use with mature primary neuronal cultures grown for 3 weeks in vitro.
Compounds were added to neurons first, then oligomers were added.
Data were the average of 3 experiments. Scale bar=20 micron in FIG. 2D.

[2] = test system: Abeta oligomer-induced acceleration of exocytosis in primary neurons; experiment: Exocytosis assay/MTT assay (Example AA); format: cell-based; details: Rattus norvegicus, Primary neuron; 28 μM memantine, control; read-out: inhibition of oligomer effects
Method: Primary neurons from E18 Sprague-Dawley rat embryos are plated at optimized concentrations in 384 well plates in NB media (Invitrogen). Neurons are maintained in cultures for 3 weeks, with twice weekly feeding of NB media with N2 supplement (Invitrogen). A test compound is added to cells, followed by addition of Vehicle or Abeta oligomer preparations (1.5 μM), and incubated for 1 to 24 hr at 37° C. in 5% CO2. MTT reagent (3-(4,5-dimethylthiazol-2-yl)-2,5diphenyl tetrazolium bromide) (Roche Molecular Biochemicals) is reconstituted in phosphate buffered saline to 5 mg/mL. 10 μL of MTT labeling reagent is added to each well and incubated at 37° C. for 1 h, then imaged. […]
Optimal cell density is determined based on cellular response to Abeta oligomers using the exocytosis assay as a readout, and immunohistochemical analysis of the relative proportion of glia to neurons in the cultures. Cultures are monitored on a weekly basis with immunohistochemistry and image processing-based quantification to monitor the percentage of the cultures that are neurons vs. glia (Glial cells). […]
Human amyloid peptide 1-42 is obtained from California Peptide, with lot-choice contingent upon quality control analysis. […] Toxicity is monitored in each image-based assay via quantification of nuclear morphology visualized with the DNA binding dye DAPI (Invitrogen). […]

[3] = test system: Abeta oligomer-mediated memory deficits; experiment: Fear conditioning assay (Example FF); format: in vivo; details: mice
Method: CT0109 was tested in an animal model of a memory-dependent behavioral task known as fear conditioning. The study protocol was designed based on published protocols (See e.g. Puzzo D, Privitera L, Leznik E, FàM, Staniszewski A, Palmeri A, Arancio O. Picomolar amyloid-beta positively modulates synaptic plasticity and memory in hippocampus. J Neurosci. 2008 Dec. 31; 28(53):14537-45). The formation of contextual memories is dependent upon the integrity of medial temporal lobe structures such as the hippocampus. In this assay mice were trained to remember that a particular salient context (conditioned stimulus; CS) is associated with an aversive event, in this case a mild foot shock (the unconditioned stimulus, US). Animals that show good learning will express an increase in freezing behavior when placed back into the same context. This freezing is absent in a novel context. Increased freezing in the context indicates strong hippocampal-dependent memory formation in animals. Memory tested in Fear Conditioning is sensitive to elevations of soluble Aβ. […] The fear condition model for memory was performed as described herein.

## C[N+](C)(C)CCCCCC[N+](C)(C)C [hexamethonium bromide]
[1]
  block of Abeta oligomer effects (decrease of intracellular formazan-filled vesicles): none were active

## CC12CC3CC(C)(C1)CC(N)(C3)C2 [Memantine, memantine]
[2]
  inhibition at 28 µM: 50%

## C[C@]12N[C@H](Cc3ccccc31)c1ccccc12 [MK-801]
[1]
  block of Abeta oligomer effects (decrease of intracellular formazan-filled vesicles): none were active

## O[C@H]1[C@H](O)[C@@H](O)[C@H](O)[C@@H](O)[C@@H]1O [scyllo-inositol]
[1]
  block of Abeta oligomer effects (decrease of intracellular formazan-filled vesicles): none were active

## COc1cc(CCC(C)NCc2ccc(C(F)(F)F)cc2)ccc1O (stereo not drawn) [CT0109, 4-(3-(4-(trifluoromethyl)benzylamino)butyl)-2-methoxyphenol]
[3]; 2 pmol dose + Abeta (200 nM), FIG. 3 bar d, p<0.05
  block of oligomer-mediated memory deficits at 2 pmol dose: completely blocked
[3]; administered prior to Abeta oligomer administration, across doses
  block of oligomer effects on memory: blocked oligomer effects on memory in a dose-dependent manner
[3]; any dose
  adverse behavioral changes: No adverse behavioral changes
[3]; without Abeta, data not shown
  effect of compound alone on memory: No effect
[1]; Rattus norvegicus, Neuron, FIG. 2B, read-out: EC50, inhibition of oligomer effects on membrane trafficking
  EC50: 7 µM
